Measured values taken from article PMC9477273 (2022).

System: biosensor 566229815 (RNA, ribozyme) GGGAAACAAACAAAGCUGUCACUGGAUUUCUUGACGAAUGUGCAGGAAACGGCUCCGGUCUGAUGAGUUCGUGGCGGGACGAAACAGCAAAAAGAAAAA
Assay: CleaveSeq ribozyme cleavage, deconvolution of 256-compound mixtures
Conditions: sub-mM free Mg2+ (chelated by 9 mM rNTPs); 2 μM each compound in mixtures; ligand inferred ("highly likely"); 37 °C

fold change of cleavage: > 2 fold
SMILES: C=CC[n+]1c(C=C2C=CC=CN2C)sc2ccccc21
